Test results as given in PubChem BioAssay AID855 (Emory University Molecular Libraries Screening Center, 2007).
Active and inactive are the calls of the source. How the calls were made is not given here.

target: Eukaryotic translation initiation factor 4E (Mus musculus) + Eukaryotic translation initiation factor 4 gamma 1 (Homo sapiens) (UniProt P63073+Q04637); test: eIF4E–eIF4G protein interaction inhibitors, dose response, biochemical, TR-FRET (AID 855); conditions: eIF4E/eIF4G binding, TR-FRET 665/620 nm
Sequence (P63073 whole entry, looked up): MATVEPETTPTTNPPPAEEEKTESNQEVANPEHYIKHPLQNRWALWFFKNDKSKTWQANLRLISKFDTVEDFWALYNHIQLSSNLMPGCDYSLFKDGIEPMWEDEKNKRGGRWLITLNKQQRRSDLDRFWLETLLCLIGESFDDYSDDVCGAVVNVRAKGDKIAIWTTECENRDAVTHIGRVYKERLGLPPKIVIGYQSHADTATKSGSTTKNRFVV
Sequence (Q04637 whole entry, looked up): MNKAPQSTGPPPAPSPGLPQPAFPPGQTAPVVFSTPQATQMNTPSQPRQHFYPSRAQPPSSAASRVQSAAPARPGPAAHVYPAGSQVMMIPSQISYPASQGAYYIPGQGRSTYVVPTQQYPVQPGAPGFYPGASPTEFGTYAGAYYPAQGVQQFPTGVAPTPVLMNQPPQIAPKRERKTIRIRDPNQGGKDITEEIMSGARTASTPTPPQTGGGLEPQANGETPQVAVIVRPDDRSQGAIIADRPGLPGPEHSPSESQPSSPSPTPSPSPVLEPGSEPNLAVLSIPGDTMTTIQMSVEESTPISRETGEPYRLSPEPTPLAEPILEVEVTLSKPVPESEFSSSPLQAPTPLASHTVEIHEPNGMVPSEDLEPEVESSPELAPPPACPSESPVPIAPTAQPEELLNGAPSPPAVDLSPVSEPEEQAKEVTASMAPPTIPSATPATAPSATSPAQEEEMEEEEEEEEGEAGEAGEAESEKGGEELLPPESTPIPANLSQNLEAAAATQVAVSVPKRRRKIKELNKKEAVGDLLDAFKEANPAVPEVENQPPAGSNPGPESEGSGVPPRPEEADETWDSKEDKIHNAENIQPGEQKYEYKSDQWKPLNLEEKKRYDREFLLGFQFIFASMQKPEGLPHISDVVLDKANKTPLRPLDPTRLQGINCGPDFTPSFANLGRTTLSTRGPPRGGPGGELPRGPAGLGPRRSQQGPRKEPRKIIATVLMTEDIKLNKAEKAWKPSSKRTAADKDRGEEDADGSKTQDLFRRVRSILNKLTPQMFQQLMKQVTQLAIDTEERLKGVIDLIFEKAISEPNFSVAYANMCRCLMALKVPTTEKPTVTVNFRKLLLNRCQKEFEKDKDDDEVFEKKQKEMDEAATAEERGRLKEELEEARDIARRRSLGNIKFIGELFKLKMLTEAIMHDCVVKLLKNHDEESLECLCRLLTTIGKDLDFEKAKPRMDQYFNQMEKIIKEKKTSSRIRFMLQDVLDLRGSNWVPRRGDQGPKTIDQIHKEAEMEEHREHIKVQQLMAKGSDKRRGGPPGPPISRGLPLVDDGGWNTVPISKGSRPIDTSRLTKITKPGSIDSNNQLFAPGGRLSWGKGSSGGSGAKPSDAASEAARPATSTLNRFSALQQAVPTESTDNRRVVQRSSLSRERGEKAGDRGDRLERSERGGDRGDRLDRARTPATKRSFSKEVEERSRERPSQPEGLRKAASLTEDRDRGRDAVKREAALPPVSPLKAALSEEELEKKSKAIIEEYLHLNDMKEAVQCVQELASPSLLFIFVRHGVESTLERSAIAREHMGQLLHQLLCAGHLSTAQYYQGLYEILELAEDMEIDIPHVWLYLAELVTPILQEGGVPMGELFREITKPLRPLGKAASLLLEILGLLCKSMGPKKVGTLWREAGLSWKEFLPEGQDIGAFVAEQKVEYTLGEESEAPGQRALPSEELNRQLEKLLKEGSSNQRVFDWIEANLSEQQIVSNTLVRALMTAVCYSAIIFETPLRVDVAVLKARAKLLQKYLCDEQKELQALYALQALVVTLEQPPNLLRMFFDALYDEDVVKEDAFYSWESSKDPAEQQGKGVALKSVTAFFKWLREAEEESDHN

Structure (SMILES) | IC50
O=C1CC(c2ccco2)CC(O)=C1C=Nc1cc(Cl)cc(Cl)c1 (stereo not given) | > 64 µM (inactive)

same assay, conditions: eIF4E/eIF4G binding, TR-FRET 665/620 nm; at 64 µM (top of the series)

Structure (SMILES) | percent of control, lower = inhibition
Cc1[nH]n(-c2ccccc2)c(=S)c1C=Nc1cccc([N+](=O)[O-])c1 | inactive
CCn1c2ccccc2c2nc3cc(S(=O)(=O)N4CCOCC4)ccc3nc21 | inactive
N#C/C(=C\c1sc(N2CCOCC2)nc1-c1ccccc1)C(=O)Nc1cccc2ccccc12 | inactive
CN1CCCN(Cc2ccccc2C(F)(F)F)CC1 | inactive
O=C(CCn1[nH]c(=O)c2ccccc2c1=O)NCCO | inactive
CCN=C(N/N=C/c1ccc([N+](=O)[O-])cc1)SC | inactive
CCOc1ccc(-c2nc(=S)[nH][nH]2)cc1 | inactive
CCC(C(=O)NC(C)CCc1ccco1)n1nc(C)n2c(cc3occc32)c1=O (stereo not given) | inactive
O=C(NC1CCCC1)c1cnc2n(c1=O)CCS2 | inactive
CCNC(=O)c1ccc(CSc2ccc(Cl)cc2)cc1 | inactive
Cc1cc(NC(=O)CSc2ccccc2)no1 | inactive
O=C(Nc1nnc(C23CC4CC(CC(C4)C2)C3)s1)c1ccc(N2C(=O)CCC2=O)cc1 | inactive
CCOC(=O)c1c(NC(=O)c2cc(-c3ccc(O)cc3)on2)sc(C(C)=O)c1C | inactive
CCOC(=O)C(C)n1ncn2cccc2c1=O (stereo not given) | inactive
O=C(CSCC(=O)Nc1ccc2ccccc2c1)NCc1ccccc1 | inactive
Cc1nn(CCC#N)c2c1P(=S)(N1CCCC1)OC(c1ccc(F)cc1)=N2 (stereo not given) | inactive
CC(=O)Nc1ccc(S(=O)(=O)NNC(=O)COc2cccc(C)c2)cc1 | inactive
Cc1noc(C)c1CSc1nc2cc(S(=O)(=O)N3CCOCC3)ccc2o1 | inactive
C=CCNC(=O)COc1cc(C)ccc1C | inactive
CCN(CC)S(=O)(=O)c1ccc(Cl)c(C(=O)Oc2cccnc2)c1 | inactive
O=C(OCCN1C(=O)c2cccc3c(N4CCOCC4)ccc(c23)C1=O)c1cc(Cl)cc(Cl)c1 | inactive
O=C(/N=C1\NC(=O)C(F)(C(F)(F)F)S1)NC1CCCCC1 (stereo not given) | inactive
COc1cc(CC(=O)Nc2ccc3c(c2)CCC3)cc(OC)c1OC | inactive
CCn1c(C2CC(=O)N(Cc3ccccc3)C2)nc2ccccc21 (stereo not given) | inactive
CC(=O)Nc1ccnc(-c2cccnc2)n1 | inactive
COc1c(Cl)cc(-c2noc(C)c2C(=O)NC(C)C)cc1Cl | inactive
CCOC(=O)c1ccccc1NC(=O)Cn1cnc2c(nnn2-c2ccc(C)cc2)c1=O | inactive
O=C(N/N=C/c1ccccc1O)c1cc(=O)[nH]c2ccccc12 | inactive
COc1ccc(C(=O)Nc2ccc3oc(Cc4ccc(Cl)cc4)nc3c2)cc1OC | inactive
